# In patent US4853221A, “Method for treating non-small cell lung cancer, head and neck cancers and breast cancer” (Warner-Lambert Company, priority 1987, dated 1989):
# Assays:
# Lung tumor = assay: Human tumor cloning system, lung tumors; type: cell-based; settings: methotrexate 0.3 μg/ml, one hour; 8 specimens
# From the text: (§1) The activity of trimetrexate was compared with that of methotrexate in tests with a human tumor cloning system (Latham, et al., Proc. Am. Assoc. Cancer Res., 24: 278 (1983)). The data from these tests appear in Table III were the activities are expressed as the numbers of tumors with 50% or greater reduction in tumor colony forming units after one hour exposure to the drug.
# Melanoma = assay: Human tumor cloning system, melanoma; type: cell-based; settings: methotrexate 0.3 μg/ml, one hour; 5 specimens
# From the text: as §1
# Colon tumor = assay: Human tumor cloning system, colon tumors; type: cell-based; settings: methotrexate 0.3 μg/ml, one hour; 9 specimens
# From the text: as §1
# AML K-562 = assay: Inhibition of AML K-562 cell growth in vitro; type: cell-based, human; settings: Homo sapiens, K562, 48 h, read-out: ED50
# Experimental: (§2) Logarithmically growing L1210 cells (approximately 3×10^5 cells/ml) were diluted with Fischer's medium (containing 10% horse serum) to an approximate concentration of 5×10^4 cells/ml. Cells were planted in duplicate into 15 ml culture tubes containing either no drug or various amounts of drug, and incubated for 48 hours at 37° C. before being counted.
# (§3) Trimetrexate was also evaluated in a similar manner side-by-side with methotrexate for its effect on the growth of three additional murine cell lines (L5178Y, Sarcoma-180, and Walkler-256) and three human cell lines (acute myelogenous leukemia K-562, T-cell 8402, and B-cell 8392), propagated in vitro.
# Ovarian tumor = assay: Human tumor cloning system, ovarian tumors; type: cell-based; settings: methotrexate 0.3 μg/ml, one hour; 6 specimens
# From the text: as §1
# human tumor cultures = assay: Human tumor cloning system, all tumors; type: cell-based
# From the text: as §1
# Breast tumor = assay: Human tumor cloning system, breast tumors; type: cell-based; settings: methotrexate 0.3 μg/ml, one hour; 10 specimens
# From the text: as §1
# Renal tumor = assay: Human tumor cloning system, renal tumors; type: cell-based; settings: methotrexate 0.3 μg/ml, one hour; 6 specimens
# From the text: as §1
# T-Cell 8402 = assay: Inhibition of T-Cell 8402 growth in vitro; type: cell-based, human; settings: Homo sapiens, T-cell, 48 h, read-out: ED50
# Experimental: as §2, §3
# L1210 cells = assay: Inhibition of L1210 cell growth in vitro; type: cell-based, murine; settings: Mus musculus, L1210, 48 h, read-out: ED50 for L1210 Cells
# Experimental: Two leukemia cell lines (L1210 and L5178Y) and two solid tumor cell lines (Sarcoma 180 and Walker 256) were used in these studies.
# as §2
# *ED50 = the concentration of drug required to reduce the cell count
# to 50%, determined by plotting the cell count versus drug concentration.
# Miscell. tumors = assay: Human tumor cloning system, miscellaneous tumors; type: cell-based; settings: methotrexate 0.3 μg/ml, one hour; 10 specimens
# From the text: as §1
# B-Cell 8392 = assay: Inhibition of B-Cell 8392 growth in vitro; type: cell-based, human; settings: Homo sapiens, B-cell, 48 h, read-out: ED50
# Experimental: as §2, §3
# [1] = test system: Early Stage P388 Leukemia; assay: Combination chemotherapy, therapeutic synergy against early stage P388 leukemia; type: in vivo, mouse
# Experimental: (§4) Several studies were carried out to determine the potential for therapeutic synergy of trimetrexate with several clinically active anticancer agents. […] (See, for example, Vendetti, "Relevance of Transplantable Animal-Tumor Systems to the Selection of New Agents for Clinical Trial," Pharmacological Basis of Cancer Chemotherapy. Williams and Wilkins, Baltimore, 1975, and Simpson Herren, et al., "Evaluation of In Vivo Tumor Models for Predicting Clinical Activity for Anticancer Drugs," Proc. Am. Assoc. Cancer Res., 26: 330 (1985).
# (§5) Differences in cell kill of greater than ten-fold (one log) were considered indicative of therapeutic synergy.
# (§6) CD2F1 mice were quarantined for at least two weeks prior to allocation to test groups. P388 leukemia was passaged in DBA2 mice according to standard protocols of the National Cancer Institute. On Day 0 of a given test, all mice in the test were randomized, injected intraperitoneally with suitably diluted ascites fluid from P388 tumor-bearing donor mice and rerandomized to test cages.
# The initial inoculum for all but titration groups was 10^6 cells as determined by hemocytometer count. Each experiment contained an internal control and tumor titration which enabled the determination of the tumor doubling time and estimates of the log cell kill and number of tumor cells surviving treatment.
# Drug treatment was begun either on Day 1 or on Day 4 depending upon the relative activity of the agents being tested.
# All of the drugs were injected within one hour of dissolution, with the exception of trimetrexate which was made up fresh twice daily. All mice were treated on the basis of average cage-group weight.
# In drug combination regimens, trimetrexate was given approximately 30 minutes before the other therapeutic agents when the route of administration of the other agent was ip. […]
# (§7) Group average weights were determined for all groups on Days 1, 5, and 9 for "early stage" P388 tests and on Days 4, 8, and 12 for "advanced stage" P388 tests. Animals were monitored for life span. […]
# [2] = test system: Advanced Stage P388 Leukemia; type: in vivo, mouse; settings: Test 2
# Experimental: as §4, §5, §6
# The initial inoculum for all but titration groups was 10^6 cells as determined by hemocytometer count. […]
# as §7
smiles,measurement,setting,value
"CN(Cc1cnc2nc(N)nc(N)c2n1)c1ccc(C(=O)N[C@@H](CCC(=O)O)C(=O)O)cc1 [Methotrexate, N-[4-[[(2,4-diamino-6-pteridinyl)methyl]methylamino]benzoyl]-L-glutamic acid, reference compound]",Number of Tumors with 50% or Greater Decrease in Tumor Colony Forming Units,Lung tumor,1
same,Number of Tumors with 50% or Greater Decrease in Tumor Colony Forming Units,Melanoma,1
same,Number of Tumors with 50% or Greater Decrease in Tumor Colony Forming Units,Colon tumor,2
same,IC50,AML K-562,50 nM
same,Number of Tumors with 50% or Greater Decrease in Tumor Colony Forming Units,Ovarian tumor,0
same,human tumor cultures sensitive to methotrexate and resistant to trimetrexate,human tumor cultures; 4/54,7%
same,Number of Tumors with 50% or Greater Decrease in Tumor Colony Forming Units,"human tumor cultures; Totals, methotrexate 0.3 μg/ml, one hour, 54 specimens",7
same,Number of Tumors with 50% or Greater Decrease in Tumor Colony Forming Units,Breast tumor,1
same,Number of Tumors with 50% or Greater Decrease in Tumor Colony Forming Units,Renal tumor,1
same,IC50,T-Cell 8402,25 nM
same,IC50,L1210 cells,8 nM
same,Number of Tumors with 50% or Greater Decrease in Tumor Colony Forming Units,Miscell. tumors,1
same,IC50,B-Cell 8392,25 nM
"COc1cccc2c1C(=O)c1c(O)c3c(c(O)c1C2=O)C[C@@](O)(C(=O)CO)C[C@@H]3O[C@H]1C[C@H](N)[C@H](O)[C@H](C)O1 [Doxorubicin, (8S,10S)-10-[(3-Amino-2,3,6-trideoxy-α-L-lyxo-hexopyranosyl)oxy]-8-glycoloyl-7,8,9,10-tetrahydro-6,8,11-trihydroxy-1-methoxy-5,12-naphthacenedione]",single agent activity,[1]; Test 1,somewhat less active than expected
"N.N.[Cl][Pt][Cl] [Cisplatin, cis-Diamminedichloroplatinum (II)]",single agent activity,[2],considerably less active as a single agent
"CC[C@]1(O)C[C@H]2CN(CCc3c([nH]c4ccccc34)[C@@](C(=O)OC)(c3cc4c(cc3OC)N(C=O)[C@H]3[C@@](O)(C(=O)OC)[C@H](OC(C)=O)[C@]5(CC)C=CCN6CC[C@]43[C@@H]65)C2)C1 [Vincristine, 22-Oxo-vincaleukoblastine]",single agent activity,[1]; Test 2,the more active of the single agents
